Measured values reported in ChEMBL document CHEMBL3826911, “Rational design and synthesis of novel anti-prostate cancer agents bearing a 3,5-bis-trifluoromethylphenyl moiety” (Bioorg Med Chem Lett, 2016).

What was measured:
[1] = tested on: CWR22R; test: Antiproliferative activity against human 22Rv1 cells assessed as reduction in cell viability after 96 hrs by propidium iodide staining based fluorescence assay; type: functional; conditions: Homo sapiens, 22Rv1, 96 h; read-out: IC50
[2] = Antiproliferative activity against human DU145 cells assessed as reduction in cell viability after 96 hrs by propidium iodide staining based fluorescence assay; type: functional, DU-145; conditions: Homo sapiens, DU-145, 96 h; read-out: IC50
[3] = Antiproliferative activity against human VCaP cells assessed as reduction in cell viability after 96 hrs by propidium iodide staining based fluorescence assay; type: functional; conditions: Homo sapiens, VCaP, 96 h; read-out: IC50
[4] = Half life in human liver microsomes at 3 uM in presence of NADPH by LC-MS/MS analysis; type: ADME
[5] = tested on: HepG2; test: Cytotoxicity against human HepG2 cells assessed as cell viability after 72 hrs by MTT assay; type: functional, cell-based; conditions: for AC50 / minimal effective concentration: HepG2, 72 h; for minimal effective concentration: read-out: MEC
[6] = Protein binding in human plasma by equilibrium dialysis method; type: ADME, cell-free; conditions: read-out: PPB (converted)
[7] = tested on: LNCaP; test: Antiproliferative activity against human LNCAP cells assessed as reduction in cell viability after 96 hrs by propidium iodide staining based fluorescence assay; type: functional; conditions: Homo sapiens, LNCaP, 96 h; read-out: IC50
[8] = molecular target: Albumin (Homo sapiens, UniProt P02768); test: Binding affinity to human serum albumin at 5 uM by equilibrium dialysis based LC-MS/MS analysis; type: ADME; conditions: read-out: PB (converted)
[9] = molecular target: hERG (KCNH2) (Homo sapiens, UniProt Q12809); test: Inhibition of human ERG transfected in CHO cells assessed as blockade of tail current at 25 uM by patch clamp assay; type: cell-based; conditions: CHO cells transfected with human ERG
[10] = tested on: Liver microsome; test: Metabolic stability in human liver microsomes at 3 uM in presence of NADPH by LC-MS/MS analysis; type: ADME
[11] = molecular target: T1, Androgen receptor (Homo sapiens, UniProt P10275); type: cell-based, GripTite-293
T1 sequence (P10275 whole entry): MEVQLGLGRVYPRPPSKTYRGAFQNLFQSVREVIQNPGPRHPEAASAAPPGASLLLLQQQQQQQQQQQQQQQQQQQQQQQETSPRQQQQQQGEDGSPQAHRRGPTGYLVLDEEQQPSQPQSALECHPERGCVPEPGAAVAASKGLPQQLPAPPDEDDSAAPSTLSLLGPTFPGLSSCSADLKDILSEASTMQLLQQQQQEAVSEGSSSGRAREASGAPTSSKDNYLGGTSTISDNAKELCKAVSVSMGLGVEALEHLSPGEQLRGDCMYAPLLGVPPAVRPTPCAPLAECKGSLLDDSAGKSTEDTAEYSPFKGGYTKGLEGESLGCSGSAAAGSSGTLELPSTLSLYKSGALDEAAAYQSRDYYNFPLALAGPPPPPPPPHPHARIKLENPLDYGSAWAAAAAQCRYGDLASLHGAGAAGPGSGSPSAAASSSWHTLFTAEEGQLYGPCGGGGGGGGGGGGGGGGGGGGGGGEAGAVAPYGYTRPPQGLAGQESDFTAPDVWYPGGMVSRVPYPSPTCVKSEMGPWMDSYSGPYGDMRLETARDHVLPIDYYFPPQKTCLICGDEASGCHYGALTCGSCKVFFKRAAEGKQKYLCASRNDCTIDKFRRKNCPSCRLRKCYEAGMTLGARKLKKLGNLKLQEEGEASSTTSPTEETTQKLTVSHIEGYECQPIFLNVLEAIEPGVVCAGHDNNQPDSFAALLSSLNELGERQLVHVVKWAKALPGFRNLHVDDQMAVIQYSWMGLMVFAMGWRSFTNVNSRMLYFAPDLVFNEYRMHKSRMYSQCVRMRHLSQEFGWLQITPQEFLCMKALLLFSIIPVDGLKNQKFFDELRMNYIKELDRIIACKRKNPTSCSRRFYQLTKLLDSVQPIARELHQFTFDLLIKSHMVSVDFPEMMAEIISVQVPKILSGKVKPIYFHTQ
Description: Antagonist activity at GAL4 DBD-fused androgen receptor LBD (unknown origin) transfected in UAS-bla GripTite 293 cells assessed as inhibition of R1881-induced receptor activation after 16 to 24 hrs by beta-lactamase reporter gene assay

[12] = molecular target: T2, Androgen receptor (Homo sapiens) (UniProt P10275); conditions: GripTite-293, at 10 µM
T2 sequence (whole entry): T1 sequence (P10275 whole entry)

[13] = Intrinsic clearance in human liver microsomes assessed per mg of protein at 3 uM in presence of NADPH by LC-MS/MS analysis; type: ADME; conditions: read-out: CLH

Chain of hERG (KCNH2) (Q12809 whole entry): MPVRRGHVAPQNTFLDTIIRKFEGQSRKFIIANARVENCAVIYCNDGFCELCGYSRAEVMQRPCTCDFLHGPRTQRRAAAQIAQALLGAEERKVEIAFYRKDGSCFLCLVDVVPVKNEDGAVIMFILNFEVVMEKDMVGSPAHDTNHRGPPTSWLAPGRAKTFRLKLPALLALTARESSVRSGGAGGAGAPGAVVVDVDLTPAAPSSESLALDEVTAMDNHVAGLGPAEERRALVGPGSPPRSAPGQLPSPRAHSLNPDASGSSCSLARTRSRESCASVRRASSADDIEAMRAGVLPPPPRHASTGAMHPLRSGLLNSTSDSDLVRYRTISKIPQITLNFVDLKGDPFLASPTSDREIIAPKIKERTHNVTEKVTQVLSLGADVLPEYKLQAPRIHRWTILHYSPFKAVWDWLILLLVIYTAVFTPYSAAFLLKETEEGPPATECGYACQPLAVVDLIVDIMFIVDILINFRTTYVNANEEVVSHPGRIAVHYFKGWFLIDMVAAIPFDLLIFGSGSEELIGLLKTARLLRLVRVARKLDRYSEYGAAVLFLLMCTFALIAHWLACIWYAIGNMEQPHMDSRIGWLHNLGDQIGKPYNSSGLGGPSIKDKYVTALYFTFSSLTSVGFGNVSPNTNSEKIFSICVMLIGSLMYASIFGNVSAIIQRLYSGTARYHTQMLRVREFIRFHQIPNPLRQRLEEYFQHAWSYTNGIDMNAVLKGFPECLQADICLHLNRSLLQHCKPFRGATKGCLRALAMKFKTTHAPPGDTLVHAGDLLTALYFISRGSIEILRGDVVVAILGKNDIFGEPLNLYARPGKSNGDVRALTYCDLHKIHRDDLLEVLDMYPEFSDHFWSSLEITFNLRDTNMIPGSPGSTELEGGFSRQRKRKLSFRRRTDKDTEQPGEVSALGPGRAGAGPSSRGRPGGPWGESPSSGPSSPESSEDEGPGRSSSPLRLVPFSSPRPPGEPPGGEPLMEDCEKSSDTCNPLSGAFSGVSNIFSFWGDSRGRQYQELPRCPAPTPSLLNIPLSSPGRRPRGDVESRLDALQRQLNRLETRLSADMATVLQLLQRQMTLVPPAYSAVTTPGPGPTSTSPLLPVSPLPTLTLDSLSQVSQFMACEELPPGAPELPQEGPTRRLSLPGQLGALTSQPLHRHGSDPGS
Chain of Albumin (P02768 whole entry): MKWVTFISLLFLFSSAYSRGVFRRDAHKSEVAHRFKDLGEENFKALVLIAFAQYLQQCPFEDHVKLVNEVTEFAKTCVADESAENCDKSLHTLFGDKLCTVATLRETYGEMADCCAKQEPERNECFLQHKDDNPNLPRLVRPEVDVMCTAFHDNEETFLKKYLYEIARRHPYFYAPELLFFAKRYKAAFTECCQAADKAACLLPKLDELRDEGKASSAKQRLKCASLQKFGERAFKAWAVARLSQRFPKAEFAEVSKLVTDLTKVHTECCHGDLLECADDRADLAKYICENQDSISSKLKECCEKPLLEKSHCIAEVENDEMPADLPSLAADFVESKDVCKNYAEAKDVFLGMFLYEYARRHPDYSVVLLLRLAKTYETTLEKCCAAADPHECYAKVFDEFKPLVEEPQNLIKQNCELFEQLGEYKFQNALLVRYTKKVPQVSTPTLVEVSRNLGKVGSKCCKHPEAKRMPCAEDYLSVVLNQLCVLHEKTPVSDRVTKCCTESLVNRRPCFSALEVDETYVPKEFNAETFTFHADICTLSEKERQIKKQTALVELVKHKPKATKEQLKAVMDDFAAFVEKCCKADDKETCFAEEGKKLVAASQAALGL

SMILES	IC50 [1] [µM]	IC50 [2] [µM]	IC50 [3] [µM]	half-life at 3 µM [4] [h]	AC50 [5] [µM]	fraction unbound [6]	IC50 [7] [µM]	Activity [5]	fraction unbound at 5 µM [8]	inhibition at 25 µM [9] [%]	Stability [10]	IC50 [11] [µM]	inhibition [12] [%]	minimal effective concentration [5] [µM]	microsomal CLint at 3 µM [13] [µL/min/mg]
C[C@](O)(CS(=O)(=O)c1ccc(F)cc1)C(=O)Nc1ccc(C#N)c(C(F)(F)F)c1 [(R)-BICALUTAMIDE]	46.2	45.4	51.6	3.57	54.3	0.04	–	–	–	–	–	–	–	–	–
C[C@](O)(CS(=O)(=O)c1cc(C(F)(F)F)cc(C(F)(F)F)c1)C(=O)Nc1ccc(C#N)c(C(F)(F)F)c1	2.5	6.36	4.11	–	–	–	1.99	Dose-dependent effect	0.001	29.3	Stable	–	–	–	–
CC(O)(COc1cc(C(F)(F)F)cc(C(F)(F)F)c1)C(=O)Nc1ccc(C#N)c(C(F)(F)F)c1 (stereo not drawn)	2.64	4.7	2.47	32.2	–	–	3.01	Dose-dependent effect	0.053	7.64	–	–	–	–	–
CC(O)(COc1cc(C(F)(F)F)cc(C(F)(F)F)c1)C(=O)Nc1ccc([N+](=O)[O-])cc1C(F)(F)F (stereo not drawn)	16.1	11.6	23.7	–	–	–	24	Dose-dependent effect	–	–	–	–	–	–	–
CC(O)(COc1cc(C(F)(F)F)cc(C(F)(F)F)c1)C(=O)Nc1ccc(C(F)(F)F)cc1 (stereo not drawn)	8.49	9.23	4.15	–	–	–	3.35	Dose-dependent effect	–	–	–	–	–	–	–
CC(O)(CS(=O)(=O)c1cc(C(F)(F)F)cc(C(F)(F)F)c1)C(=O)Nc1ccc([N+](=O)[O-])cc1C(F)(F)F (stereo not drawn)	2.41	3.05	7.11	–	–	–	3.09	Dose-dependent effect	–	–	–	–	–	–	–
CC(O)(CS(=O)(=O)c1ccccc1OC(F)(F)F)C(=O)Nc1cc(C(F)(F)F)cc(C(F)(F)F)c1 (stereo not drawn)	8.99	12.9	9.95	4.83	–	–	8.02	Dose-dependent effect	0.217	13.4	–	–	–	–	–
CC(O)(CSc1cc(C(F)(F)F)cc(C(F)(F)F)c1)C(=O)Nc1ccc(C(F)(F)F)cc1 (stereo not drawn)	9.75	16.4	9.88	–	–	–	9.61	Dose-dependent effect	–	–	–	–	–	–	–
CC1(C)C(=O)N(c2ccc([N+](=O)[O-])c(C(F)(F)F)c2)C(=S)N1c1cc(C(F)(F)F)cc(C(F)(F)F)c1	20.2	18.1	28.4	–	–	–	9.93	Dose-dependent effect	–	–	–	–	–	–	–
CC(O)(CSc1cc(C(F)(F)F)cc(C(F)(F)F)c1)C(=O)Nc1ccc([N+](=O)[O-])c(C(F)(F)F)c1 (stereo not drawn)	1.5	2.78	1.53	–	–	–	1.5	Dose-dependent effect	–	–	–	0.71	90	–	–
CC(O)(CS(=O)(=O)c1cccc(C(F)(F)F)c1)C(=O)Nc1cc(C(F)(F)F)cc(C(F)(F)F)c1 (stereo not drawn)	10.3	11.5	9.98	–	–	–	9.5	Dose-dependent effect	–	–	–	–	–	–	–
C[C@](O)(CSc1cc(C(F)(F)F)cc(C(F)(F)F)c1)C(=O)Nc1ccc(C#N)c(C(F)(F)F)c1	1.13	2.66	0.84	0.108	2.35	–	0.79	–	–	–	–	–	–	1.22	–
COc1ccc2c(c1)[C@]13CCCC[C@@H]1[C@H](C2)N(C)CC3 [DEXTROMETHORPHAN]	–	–	–	1.05	–	–	–	–	–	–	–	–	–	–	21.9
CC(O)(CS(=O)(=O)c1cc(C(F)(F)F)cc(C(F)(F)F)c1)C(=O)Nc1ccc(C#N)c(C(F)(F)F)c1 (stereo not drawn)	3.11	5.58	6.21	–	–	–	2.86	Dose-dependent effect	–	–	–	–	–	–	–
CC(O)(CSc1ccccc1C(F)(F)F)C(=O)Nc1cc(C(F)(F)F)cc(C(F)(F)F)c1 (stereo not drawn)	4.37	8.66	3.84	–	–	–	3.57	Dose-dependent effect	–	–	–	–	–	–	–
CC(O)(CS(=O)(=O)c1cc(C(F)(F)F)cc(C(F)(F)F)c1)C(=O)Nc1ccc([N+](=O)[O-])c(C(F)(F)F)c1 (stereo not drawn)	2.15	5.26	3.3	9.45	9.01	–	2.1	–	–	–	–	3.1	93	3.6	–
CC1(C)C(=O)N(c2ccc([N+](=O)[O-])cc2C(F)(F)F)C(=S)N1c1cc(C(F)(F)F)cc(C(F)(F)F)c1	6.97	10	18.6	1.19	–	–	4.67	Dose-dependent effect	0.001	9.44	–	–	–	–	–
CC(O)(COc1cc(C(F)(F)F)cc(C(F)(F)F)c1)C(=O)Nc1ccc([N+](=O)[O-])c(C(F)(F)F)c1 (stereo not drawn)	1.09	2.9	1.66	–	–	–	0.99	Dose-dependent effect	–	–	–	–	–	–	–
CC(O)(COc1cc(C(F)(F)F)cc(C(F)(F)F)c1)C(=O)Nc1ccc(C#N)cc1C(F)(F)F (stereo not drawn)	4.07	8.05	4.77	–	–	–	3.56	Dose-dependent effect	–	–	–	–	–	–	–
